These results are taken from US20050090522A1 (priority 2001, published 2005).

The structures appear in SMILES notation. Read-outs that look alike come from different tables or passages of the source. Where only a bound is given, the exact number is not on record here.

The subject of one data set is HIV-1. Nature of the data set: HIV-1 single-round infectious luciferase reporter virus (pseudotype) assay in HeLa CD4 CCR5 cells. It counts as cell-based. In a few lines:
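HeLa CD4 CCR5 cells (5×10^4/well, DMEM + 10% FBS) were treated with compound (final <10 μM) and infected with single-round luciferase reporter virus made in 293 cells, at MOI ~0.01. Luciferase was read 72 h post infection. EC50 came from 10-concentration percent-inhibition curves fitted to a four-parameter logistic model.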

A further data set relates to HeLa cells. Kind of data set: Cytotoxicity assay in HeLa cells (MTT dye reduction, CC50). The following applies: cytotoxicity; Yes = CC50 above 100 uM, No = not. Here is the method:
• Virus production—Human embryonic Kidney cell line, 293, propagated in Dulbecco's Modified Eagle Medium (Life Technologies, Gaithersburg, Md.) containing 10% fetal Bovine serum (FBS, Sigma, St. Louis, Mo.). • Virus infection—Human epithelial cell line, HeLa, expressing the HIV-1 receptors CD4 and CCR^5 was propagated in Dulbecco's Modified Eagle Medium (Life Technologies, Gaithersburg, Md.) containing 10% fetal Bovine serum (FBS, Sigma, St. Louis, Mo.) and supplemented with 0.2 mg/mL Geneticin (Life Technologies, Gaithersburg, Md.) and 0.4 mg/mL Zeocin (Invitrogen, Carlsbad, Calif.). […] Transfections were performed using lipofectAMINE PLUS reagent as described by the manufacturer (Life Technologies, Gaithersburg, Md.). Experiment • 1. Compound was added to HeLa CD4 CCR5 cells plated in 96 well plates at a cell density of 5×10^4 cells per well in 100 μl Dulbecco's Modified Eagle Medium containing 10% fetal Bovine serum at a concentration of […]. • 2. 100 μl of single-round infectious reporter virus in Dulbecco's Modified Eagle Medium was then added to the plated cells and compound at an approximate multiplicity of infection (MOI) of 0.01, resulting in a final volume of 200 μl per well and a final compound concentration of <10 μM. • 3. Samples were harvested 72 h after infection. • 4. Viral infection was monitored by measuring luciferase expression from viral DNA in the infected cells using a luciferase reporter gene assay kit (Roche Molecular Biochemicals, Indianapolis, Ind.). Infected cell supernatants were removed and 50 μl of Dulbecco's Modified Eagle Medium (without phenol red) and 50 μl of luciferase assay reagent reconstituted as described by the manufacturer (Roche Molecular Biochemicals, Indianapolis, Ind.) was added per well. Luciferase activity was then quantified by measuring luminescence using a Wallac microbeta scintillation counter. • 5. […] An EC50 provides a method for comparing the antiviral potency of the compounds of this invention. The effective concentration for fifty percent inhibition (EC50) was calculated with the Microsoft Excel Xlfit curve fitting software. For each compound, curves were generated from percent inhibition calculated at 10 different concentrations by using a four paramenter logistic model (model 205). Table 1 is the key for the data in Tables 2-4. Cytoxicity assays were conducted with the same HeLa using methodology well known in the art.
For accuracy, the determined measure of viral inhibition is an EC50; but the minimum plasma concentrations which should be maintained in a patient is generally believed to be at least four or five fold higher. […] Lower is better. • 4) Estimating potential exposure in man by measuring parameters such as AUC and rate of clearance by oral and iv dosing in rats. High exposure and low clearance was desired.

The mark [1] stands for this setting: Human immunodeficiency virus 1, HeLa-CD4/CCR5, read-out: EC50 Group from TABLE 1, HeLa CD4 CCR5 cells, single-round infectious luciferase reporter virus.
The mark [2] stands for this setting: Human immunodeficiency virus 1, HeLa-CD4/CCR5, read-out: EC50 category, HIV-1 single-round reporter virus assay, category 1/2/3 per Table A1 key.
[3] abbreviates: Human immunodeficiency virus 1, HeLa-CD4/CCR5, read-out: EC50 Group from Table 1, Table 2-1, HeLa CD4 CCR5 cells, single-round luciferase reporter virus.

Consider `COc1ncc(-c2ncc(OC)c3c(C(=O)C(=O)N4CCN(C(=O)c5ccccc5)CC4)c[nH]c23)c(OC)n1` [Example 13, 1-benzoyl-4-[(4-methoxy-7-(2,4-dimethoxy-pyrimidin-5-yl)-6-azaindol-3-yl)-oxoacetyl]piperazine], for which the EC50 in the data set on HIV-1 (setting [1]) is below 1000 nM; in the data set with HIV-1 (setting [2]) it was 0.2 to 1000 nM. In the data set on HeLa cells, the “CC50 > 100 uM” value is on record as “Yes”. Consider `COc1cnc(-c2ccn(C)n2)c2[nH]cc(C(=O)C(=O)N3CCN(C(=O)c4ccccc4)CC3)c12` [Example 22, 1-benzoyl-4-[(4-methoxy-7-(1-methyl-pyrazol-3-yl)-6-azaindol-3-yl)-oxoacetyl]piperazine], for which the EC50 in the data set on HIV-1 (setting [1]) was below 1000 nM; with HIV-1 (setting [2]), below 0.2 nM. The “CC50 > 100 uM” value in the data set on HeLa cells is given as “No”. For the compound `COc1cnc(-c2cccn2C)c2[nH]cc(C(=O)C(=O)N3CCN(C(=O)c4ccccc4)CC3)c12` [Example 28, 1-benzoyl-4-[(4-methoxy-7-(11-methyl-pyrrol-2-yl)-6-azaindol-3-yl)oxoacetyl]piperazine], the values for the EC50 in the data set on HIV-1 (setting [1]) and in the data set on HIV-1 (setting [2]) were below 1000 nM and above 1000 nM, respectively. Moreover, in the data set with HeLa cells, the “CC50 > 100 uM” value was “No”. On to `C[C@@H]1CN(C(=O)c2ccccc2)CCN1C(=O)C(=O)c1c[nH]c2c(-c3nccs3)ncc(F)c12` [Example 37, 1-benzoyl-3-(R)-methyl-4-[(4-fluoro-7-(thiazol-2-yl)-6-azaindol-3-yl)-oxoacetyl]piperazine], for which the EC50 in the data set on HIV-1 (setting [1]) is below 1000 nM; in the data set on HIV-1 (setting [2]) it was below 0.2 nM. Further, the “CC50 > 100 uM” value in the data set with HeLa cells was “No”. `COc1cnc(-c2cncnc2)c2[nH]cc(C(=O)C(=O)N3CCN(C(=O)c4ccccc4)CC3)c12` [Example 40, 1-benzoyl-4-[(4-methoxy-7-(pyfimidin-5-yl)-6-azaindol-3-yl)-oxoacetyl]piperazine]: the EC50 was below 1000 nM in the data set on HIV-1 (setting [1]) and 0.2 to 1000 nM in the data set with HIV-1 (setting [2]). In addition, the “CC50 > 100 uM” value with HeLa cells is on record as “No”. Taken in the same sequence, the figures for `CNC(=O)c1ccc(-c2ncc(OC)c3c(C(=O)C(=O)N4CCN(C(=O)c5ccccc5)CC4)c[nH]c23)o1` [Example 94, 1-benzoyl-4-[(4-methoxy-7-(2-methylaminocarbonyl-furan-5-yl)-6-azaindol-3-yl)-oxoacetyl]piperazine] were below 1000 nM, below 0.2 nM and “Yes”. Take `O=C(C(=O)N1CCN(C(=O)c2ccccc2)CC1)c1c[nH]c2c(-c3cnc[nH]3)ncc(F)c12` [Example 148]: the EC50 in the data set with HIV-1 (setting [1]) was below 1000 nM; in the data set with HIV-1 (setting [2]), 0.2 to 1000 nM. In addition, the “CC50 > 100 uM” value in the data set on HeLa cells is reported as “Yes”.

On to `COc1cnc(-n2cccn2)c2[nH]cc(C(=O)C(=O)N3CCN(C(=O)c4ccccc4)CC3)c12` [Example 189, 1-benzoyl-4-[(4-methoxy-7-(1-pyrazolyl)-6-azaindol-3-yl)-oxoacetyl]piperazine], for which the EC50 in the data set with HIV-1 (setting [1]) is below 1000 nM; in the data set on HIV-1 (setting [2]) it was 0.2 to 1000 nM. For the same compound, the “CC50 > 100 uM” value in the data set on HeLa cells is reported as “Yes”. As for `COc1cnc(-n2ccc(-c3ccc(C(F)(F)F)cc3)n2)c2[nH]cc(C(=O)C(=O)N3CCN(C(=O)c4ccccc4)CC3)c12` [Example 288, 1-benzoyl-4-[(4-methoxy-7-(3-(4-trifluoromethyl-phenyl)-pyrazol-1-yl)-6-azaindol-3-yl)-oxoacetyl]piperazine], the EC50 in the data set with HIV-1 (setting [1]) is below 1000 nM. In the case of `CCCSc1ncn(-c2ncc(OC)c3c(C(=O)C(=O)N4CCN(C(=O)c5ccccc5)CC4)c[nH]c23)n1` [Example 289, 1-benzoyl-4-[(4-methoxy-7-(3-propylsulfanyl-[1,2,4]triazol-1-yl)-6-azaindol-3-yl)-oxoacetyl]piperazine], the EC50 in the data set on HIV-1 (setting [1]) was below 1000 nM. The same measure, in the same setting: as for `CCCS(=O)(=O)c1ncn(-c2ncc(OC)c3c(C(=O)C(=O)N4CCN(C(=O)c5ccccc5)CC4)c[nH]c23)n1` [Example 290, 1-benzoyl-4-[(4-methoxy-7-(3-(propane-1-sulfonyl)-[1,2,4]triazol-1-yl)-6-azaindol-3-yl)-oxoacetyl]piperazine], the figure is below 1000 nM; as for `COc1ncn(-c2ncc(OC)c3c(C(=O)C(=O)N4CCN(C(=O)c5ccccc5)CC4)c[nH]c23)n1` [Example 291, 1-benzoyl-4-[(4-methoxy-7-(3-methoxy-[1,2,4]triazol-1-yl)-6-azaindol-3-yl)-oxoacetyl]piperazine], below 1000 nM.

Turning to `COc1cnc(-n2ccc(-c3ccc(C(=O)O)cc3)n2)c2[nH]cc(C(=O)C(=O)N3CCN(C(=O)c4ccccc4)CC3)c12` [Example 292, 1-benzoyl-4-[(4-methoxy-7-(3-(4-hydroxylcarbonylphenyl)-pyrazol-1-yl)-6-azaindol-3-yl)-oxoacetyl]piperazine], in the data set with HIV-1 (setting [1]), the EC50 was below 1000 nM. For `COC(=O)c1ccc(-c2ccn(-c3ncc(OC)c4c(C(=O)C(=O)N5CCN(C(=O)c6ccccc6)CC5)c[nH]c34)n2)cc1` [Example 293, 1-benzoyl-4-[(4-methoxy-7-(3-(4-methoxycarbonylphenyl)-pyrazol-1-yl)-6-azaindol-3-yl)-oxoacetyl]piperazine], in the data set with HIV-1 (setting [1]), the EC50 is below 1000 nM. On to `COc1cnc(-n2ccc(-c3cccc(C(=O)O)c3)n2)c2[nH]cc(C(=O)C(=O)N3CCN(C(=O)c4ccccc4)CC3)c12` [Example 294, 1-benzoyl-4-[(4-methoxy-7-(3-(3-hydroxylcarbonylphenyl)-pyrazol-1-yl)-6-azaindol-3-yl)-oxoacetyl]piperazine], for which the EC50 in the data set with HIV-1 (setting [1]) was below 1000 nM. As for `CNc1nc(-c2ncc(F)c3c(C(=O)C(=O)N4CCN(C(=O)c5ccccc5)CC4)c[nH]c23)no1` [Example 298], the EC50 in the data set on HIV-1 (setting [1]) is below 1000 nM. For the compound `CCOC(=O)c1cc(C)nn1-c1ncc(F)c2c(C(=O)C(=O)N3CCN(C(=O)c4ccccc4)CC3)c[nH]c12` [Example 311], the EC50 with HIV-1 (setting [1]) was below 1000 nM.

Consider `COc1cnc(-n2ncnc2C)c2[nH]cc(C(=O)C(=O)N3CCN(C(=O)c4ccccc4)CC3)c12` [Example 319], for which the EC50 in the data set with HIV-1 (setting [1]) is below 1000 nM. With `COCc1ncn(-c2ncc(OC)c3c(C(=O)C(=O)N4CCN(C(=O)c5ccccc5)CC4)c[nH]c23)n1` [Example 323], the EC50 in the data set on HIV-1 (setting [1]) was below 1000 nM. The same measure, in the same setting: as for `COc1cnc(-n2cnc(CCC(=O)O)c2)c2[nH]cc(C(=O)C(=O)N3CCN(C(=O)c4ccccc4)CC3)c12` [Example 329], the figure is below 1000 nM; as for `COc1cnc(Nc2ccccn2)c2[nH]cc(C(=O)C(=O)N3CCN(C(=O)c4ccccc4)CC3)c12` [Example 330], below 1000 nM.

As for `COc1cnc(N(c2ccccn2)S(C)(=O)=O)c2[nH]cc(C(=O)C(=O)N3CCN(C(=O)c4ccccc4)CC3)c12` [Example 331], the EC50 in the data set on HIV-1 (setting [1]) is below 1000 nM. `COc1cnc(-c2nc(-c3ccccc3)n[nH]2)c2[nH]cc(C(=O)C(=O)N3CCN(C(=O)c4ccccc4)[C@H](C)C3)c12` [Example 335]: the EC50 with HIV-1 (setting [3]) was below 1000 nM.

Take `CCc1n[nH]c(-c2ncc(OC)c3c(C(=O)C(=O)N4CCN(C(=O)c5ccccc5)[C@H](C)C4)c[nH]c23)n1` [Example 336]: the EC50 with HIV-1 (setting [3]) is below 1000 nM. Turning to `COc1cnc(-c2nc(-c3ccc(C)cc3)n[nH]2)c2[nH]cc(C(=O)C(=O)N3CCN(C(=O)c4ccccc4)[C@H](C)C3)c12` [Example 337], the EC50 in the data set on HIV-1 (setting [3]) is below 1000 nM.

In the case of `COc1cnc(-c2nc(-c3cccnc3)n[nH]2)c2[nH]cc(C(=O)C(=O)N3CCN(C(=O)c4ccccc4)[C@H](C)C3)c12` [Example 338], the EC50 in the data set with HIV-1 (setting [3]) is below 1000 nM. Consider `COc1cnc(-c2nc(-c3cccc(Cl)c3)n[nH]2)c2[nH]cc(C(=O)C(=O)N3CCN(C(=O)c4ccccc4)[C@H](C)C3)c12` [Example 339], for which, in the data set with HIV-1 (setting [3]), the EC50 was below 1000 nM. On to `COc1cnc(-c2nc(-c3ccoc3)n[nH]2)c2[nH]cc(C(=O)C(=O)N3CCN(C(=O)c4ccccc4)[C@H](C)C3)c12` [Example 340], for which, in the data set with HIV-1 (setting [3]), the EC50 was below 1000 nM. `COc1cnc(-c2nc(-c3csc(C)n3)n[nH]2)c2[nH]cc(C(=O)C(=O)N3CCN(C(=O)c4ccccc4)[C@H](C)C3)c12` [Example 341]: the EC50 with HIV-1 (setting [1]) and in the data set with HIV-1 (setting [3]) was below 1000 nM throughout. As for `COc1cnc(-c2cnccn2)c2[nH]cc(C(=O)C(=O)N3CCN(C(=O)OC(C)(C)C)CC3)c12` [Precursor 5t], in the data set on HIV-1 (setting [1]), the EC50 was below 1000 nM.
